Data published in patent publication US5061794A, “Cephalosporin derivatives, and antibacterial agents” (priority 1986, dated 1991).
Like-named read-outs stand apart in the source and are kept apart here.

Legend:
A. calcoaceticus No. 4 = assay: in vitro antibacterial activity, agar plate dilution method (MIC); type: cell-based, Acinetobacter calcoaceticus; details: Acinetobacter calcoaceticus, NO.4, 16 h, A. calcoaceticus No. 4; 10^6 CFU/ml; read-out: Minimum Inhibitory Concentration (MIC)
Procedure, shortened: (§1)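 Inoculum 10^6 CFU/ml; medium Mueller Hinton agar with graded antibiotic; 37° C./16 h; endpoint MIC (μg/ml).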

Ps. cepacia 23 = assay: as above; type: cell-based, Pseudomonas cepacia; details: Burkholderia cepacia, 16 h; Ps. cepacia 23; 10^6 CFU/ml; read-out: Minimum Inhibitory Concentration (MIC)
Procedure, shortened: as §1

E. coli CSH2 (RK1) = assay: microbe, parasite or virus in culture; type: cell-based; details: Escherichia coli, 16 h, read-out: Minimum Inhibitory Concentration (MIC), *E. coli CSH2 (RK1), lactamase-producing strain; 10^6 CFU/ml
Procedure, shortened: as §1

E. coli CSH(RE45) = assay: microbe, parasite or virus in culture; type: cell-based; details: Escherichia coli, 16 h, read-out: Minimum Inhibitory Concentration (MIC), *E. coli CSH(RE45), lactamase-producing strain; 10^6 CFU/ml
Procedure, shortened: as §1

Ps. aeruginosa AK 109 = assay: in vitro antibacterial activity, agar plate dilution method (MIC); type: cell-based, Pseudomonas aeruginosa; details: Pseudomonas aeruginosa, AK109, 16 h, read-out: Minimum Inhibitory Concentration (MIC)
Procedure, shortened: as §1

Ps. aeruginosa IF03445 = assay: as above; type: cell-based, Pseudomonas aeruginosa; details: Pseudomonas aeruginosa, IF03445, 16 h, read-out: Minimum Inhibitory Concentration (MIC), Ps. aeruginosa IF03445; 10^6 CFU/ml
Procedure, shortened: as §1

Ps. aeruginosa AKR17 = assay: as above; type: cell-based, Pseudomonas aeruginosa; details: Pseudomonas aeruginosa, AKR17, 16 h, read-out: Minimum Inhibitory Concentration (MIC), Ps. aeruginosa AKR17; 10^6 CFU/ml
Procedure, shortened: as §1

M. morganii GN5407 = assay: as above; type: cell-based; details: Morganella morganii, GN5407, 16 h, read-out: Minimum Inhibitory Concentration (MIC), *M. morganii GN5407, lactamase-producing strain; 10^6 CFU/ml
Procedure, shortened: as §1

E. coli GN5482 = assay: as above; type: cell-based; details: Escherichia coli, GN5482, 16 h, read-out: Minimum Inhibitory Concentration (MIC)
Procedure, shortened: as §1

S. marcescens IAM 1184 = assay: as above; type: cell-based; details: Serratia marcescens, IAM1184, 16 h, S. marcescens IAM 1184; 10^6 CFU/ml; read-out: Minimum Inhibitory Concentration (MIC)
Procedure, shortened: as §1

S. marcescens No. 16-2 = assay: as above; type: cell-based; details: Serratia marcescens, NO.162, 16 h, read-out: Minimum Inhibitory Concentration (MIC), *S. marcescens No. 16-2, lactamase-producing strain; 10^6 CFU/ml
Procedure, shortened: as §1

K. pneumoniae PCI-602 = assay: as above; type: cell-based; details: Klebsiella pneumoniae, PCI602, 16 h, read-out: Minimum Inhibitory Concentration (MIC), K. pneumoniae PCI-602; 10^6 CFU/ml
Procedure, shortened: as §1

E. coli NIHJ JC2 = assay: as above; type: cell-based; details: Escherichia coli, NIHJJC2, 16 h, read-out: Minimum Inhibitory Concentration (MIC), E. coli NIHJ JC2, 10^6 CFU/ml, 37° C.
Procedure, shortened: as §1

K. pneumoniae No. 42 = assay: as above; type: cell-based; details: Klebsiella pneumoniae, NO.42, 16 h, read-out: Minimum Inhibitory Concentration (MIC), *K. pneumoniae No. 42, lactamase-producing strain; 10^6 CFU/ml
Procedure, shortened: as §1

P. vulgaris No. 33 = assay: as above; type: cell-based; details: Proteus vulgaris, NO.33, 16 h, read-out: Minimum Inhibitory Concentration (MIC), *P. vulgaris No. 33, lactamase-producing strain; 10^6 CFU/ml
Procedure, shortened: as §1

E. cloacae 963 = assay: as above; type: cell-based; details: 10^6 CFU/ml
Procedure, shortened: as §1

S. aureus 209P NIHJ-JC1 = assay: as above; type: cell-based; details: Staphylococcus aureus, 16 h, read-out: Minimum Inhibitory Concentration (MIC)
Procedure, shortened: as §1

P. vulgaris HX-19 = assay: as above; type: cell-based; details: Proteus vulgaris, HX19, 16 h, read-out: Minimum Inhibitory Concentration (MIC)
Procedure, shortened: as §1

K. oxytoca GN10650 = assay: as above; type: cell-based; details: Klebsiella oxytoca, GN10650, 16 h, read-out: Minimum Inhibitory Concentration (MIC), *K. oxytoca GN10650, lactamase-producing strain; 10^6 CFU/ml
Procedure, shortened: as §1

E. cloacae Nek 39 = assay: as above; type: cell-based; details: Enterobacter cloacae, NEK39, 16 h, read-out: Minimum Inhibitory Concentration (MIC), *E. cloacae Nek 39, lactamase-producing strain; 10^6 CFU/ml
Procedure, shortened: as §1

[1] = tested on: Enterobacter cloacae GN 5797; assay: β-lactamase inducibility; type: cell-based; details: antibiotic at 50, 10 and 1 μg/ml; cephaloridine as substrate
Procedure: The assay method for induction of β-lactamase by β-latam antibiotics was as follows:
The test organism, Enterobacter cloacae GN 5797, was grown overnight in Mueller Hinton broth (Dlfco Laboratories, Detroit, Mich.) at 37° C. The culture was diluted 10-fold into 20 ml of the flesh medium and incubated with shaking at 37° C. After 2 hours of incubation, antibiotics were added to final concentrations of 50 μg/ml, 10 μg/ml and 1 μg/ml, and the incubation was continued. At 1 hour intervals after the addition of antibiotic, 3 ml of sample was taken, and immediately added with 0.1 ml of 50 mM sodium azide. The cells were harvested and washed with 50 mM phosphate buffer (ph 7.0). The cells were suspended in 5 ml of 50 mM phosphate buffer and disrupted with a sonicater in an ice-water bath. The broken cells were centrifuged at 16,500 G for 40 minutes at 4° C., and the resulting supernatant fluid was used as the crude enzyme. β-Lactamase activity was determined by a sopectrophotometric method (Antmicrob. Agents Chemother. 17, 355-358, 1980) with cephaloridine as substrate. The concentration of protein was determined by the method of Lowry (J. Biol. Chem. 193, 265-275, 1951). […] As a representative example, the compound of EXAMPLE 50 was administered to mice by means of subcutaneous administration, and the concentration in the blood was measured.

SMILES | MIC (A. calcoaceticus No. 4) [µg/mL] | MIC (Ps. cepacia 23) [µg/mL] | MIC (E. coli CSH2 (RK1)) [µg/mL] | MIC (E. coli CSH(RE45)) [µg/mL] | MIC (Ps. aeruginosa AK 109) [µg/mL] | MIC (Ps. aeruginosa IF03445) [µg/mL] | MIC (Ps. aeruginosa AKR17) [µg/mL] | MIC (M. morganii GN5407) [µg/mL] | MIC (E. coli GN5482) [µg/mL] | MIC (S. marcescens IAM 1184) [µg/mL] | MIC (S. marcescens No. 16-2) [µg/mL] | MIC (K. pneumoniae PCI-602) [µg/mL] | MIC (E. coli NIHJ JC2) [µg/mL] | MIC (K. pneumoniae No. 42) [µg/mL] | MIC (P. vulgaris No. 33) [µg/mL] | MIC (P. vulgaris HX-19) [µg/mL] | MIC (K. oxytoca GN10650) [µg/mL] | MIC (E. cloacae Nek 39) [µg/mL] | β-lactamase inducibility [1] | other results
CC(C)(ON=C(C(=O)NC1C(=O)N2C(C(=O)O)=C(CSc3nc(-c4ccc(O)c(O)c4)cs3)CSC12)c1csc(N)n1)C(=O)O (stereo not drawn) [Ex. 44, disodium 7β-[2-(2-aminothiazol-4-yl)-2-(1-carboxylate-1-methylethoxyimino)acetamido]-3-[4-(3,4-dihydroxyphenyl)thiazol-2-yl]thiomethyl-3-cephem-4-carboxylate] | 0.2 | < 0.006 | 0.0125 | 0.0125 | 0.39 | 0.39 | 1.56 | 0.05 | 0.39 | 0.05 | 1.56 | < 0.006 | 0.2 | 0.1 | 0.025 | 0.0125 | 0.025 | 0.1 | no substantial β-lactamase-inducing activity was observed | MIC (E. cloacae 963; Enterobacter cloacae, 16 h, E. cloacae 963, read-out: Minimum Inhibitory Concentration (MIC)): 0.1 µg/mL; MIC (S. aureus 209P NIHJ-JC1): 12.5 µg/mL
CC(C)(O/N=C(\C(=O)N[C@@H]1C(=O)N2C(C(=O)O)=C(CSc3ncc(-c4ccc(O)c(O)c4)o3)CS[C@H]12)c1csc(N)n1)C(=O)O [Ex. 64, disodium 7β-[2-(2-aminothiazol-4-yl)-2-(1-carboxylate-1-methylethoxyimino)acetamido]-3-[5-(3,4-dihydroxyphenyl)oxazol-2-yl]thiomethyl-3-cephem-4-carboxylate] | 0.2 | < 0.006 | 0.0125 | 0.025 | 0.39 | 0.78 | 1.56 | 0.1 | 3.12 | 0.1 | 1.56 | 0.0125 | 0.78 | 0.05 | 0.025 | 0.0125 | 0.1 | 0.2 | no substantial β-lactamase-inducing activity was observed | MIC (E. cloacae 963; Enterobacter cloacae, 963, 16 h, read-out: Minimum Inhibitory Concentration (MIC), E. cloacae 963): 0.39 µg/mL; MIC (S. aureus 209P NIHJ-JC1; S. aureus 209P NIHJ-JC1, 10^6 CFU/ml, 37° C., 16 hours): 25 µg/mL
